Measurements reported in publication PMC5218480 (PLoS ONE, 2017).

Test system: MV-4-11 cells
Assay: Gene expression microarray analysis (Affymetrix PrimeView) and GSEA
Type: cell-based, human
Design: RFU PODN (11730768_x_at) / Fold change /veh PODN (11730768_x_at) / RFU LINC00158 (11744669_a_at) / Fold change /veh LINC00158 (11744669_a_at) / RFU DUSP10 (11751237_a_at) / Fold change /veh DUSP10 (11751237_a_at) / RFU ID3 (11757404_x_at) / Fold change /veh ID3 (11757404_x_at) / RFU PLEKHG5 (11737974_s_at) / Fold change /veh PLEKHG5 (11737974_s_at) / RFU LRRC4B (11730491_at) / Fold change /veh LRRC4B (11730491_at) / RFU GIMAP4 (11747438_a_at) / Fold change /veh GIMAP4 (11747438_a_at) / RFU KRT8 (11758183_x_at) / Fold change /veh KRT8 (11758183_x_at) / RFU CNN1 (11734310_a_at) / Fold change /veh CNN1 (11734310_a_at) / RFU VPS37D (11726825_at) / Fold change /veh VPS37D (11726825_at) / RFU C10orf10 (11716522_x_at) / Fold change /veh C10orf10 (11716522_x_at) / RFU KIR2DL2 /// KIR2DL4 /// KIR2DL5A /// KIR2DL5B /// KIR2DS1 /// KIR2DS2 /// KIR2DS3 /// KIR2DS4 /// KIR3DL3 /// KIR3DL3 /// KIR3DS1 (11738374_at) / Fold change /veh KIR2DL2 /// KIR2DL4 /// KIR2DL5A /// KIR2DL5B /// KIR2DS1 /// KIR2DS2 /// KIR2DS3 /// KIR2DS4 /// KIR3DL3 /// KIR3DL3 /// KIR3DS1 (11738374_at) / RFU C1QL1 (11718748_at) / Fold change /veh C1QL1 (11718748_at) / RFU TMPRSS4 (11747572_a_at) / Fold change /veh TMPRSS4 (11747572_a_at) / RFU HAMP (11756126_x_at) / Fold change /veh HAMP (11756126_x_at) / RFU RNFT2 (11725882_a_at) / Fold change /veh RNFT2 (11725882_a_at) / RFU NR4A2 (11747474_a_at) / Fold change /veh NR4A2 (11747474_a_at) / RFU ABCC12 (11746883_a_at) / Fold change /veh ABCC12 (11746883_a_at) / RFU TMEM136 (11760407_x_at) / Fold change /veh TMEM136 (11760407_x_at) / RFU CLDN22 /// WWC2 (11732394_at) / Fold change /veh CLDN22 /// WWC2 (11732394_at) / RFU HLA-DPB1 (11760878_x_at) / Fold change /veh HLA-DPB1 (11760878_x_at) / RFU SPINT1 (11716480_a_at) / Fold change /veh SPINT1 (11716480_a_at) / RFU GAP43 (11754022_s_at) / Fold change /veh GAP43 (11754022_s_at) / RFU A4GNT (11735810_at) / Fold change /veh A4GNT (11735810_at) / RFU PRB3 (11715151_x_at) / Fold change /veh PRB3 (11715151_x_at) / RFU TUBB4B (11761932_at) / Fold change /veh TUBB4B (11761932_at) / RFU CAPN14 (11732068_a_at) / Fold change /veh CAPN14 (11732068_a_at) / RFU TMCC2 (11721928_a_at) / Fold change /veh TMCC2 (11721928_a_at) / RFU IRGQ (11745062_a_at) / Fold change /veh IRGQ (11745062_a_at) / RFU FAM174B (11720279_a_at) / Fold change /veh FAM174B (11720279_a_at) / RFU TMPRSS4 (11748680_a_at) / Fold change /veh TMPRSS4 (11748680_a_at) / RFU FAM212B (11763350_a_at) / Fold change /veh FAM212B (11763350_a_at) / RFU PLEKHG5 (11743358_a_at) / Fold change /veh PLEKHG5 (11743358_a_at) / RFU ZSCAN30 (11745921_a_at) / Fold change /veh ZSCAN30 (11745921_a_at) / RFU CMKLR1 (11741424_a_at) / Fold change /veh CMKLR1 (11741424_a_at) / RFU LOC101060620 /// MAPK8IP1 (11723275_at) / Fold change /veh LOC101060620 /// MAPK8IP1 (11723275_at) / RFU SPTSSB (11747773_x_at) / Fold change /veh SPTSSB (11747773_x_at) / RFU PRSS12 (11739890_at) / Fold change /veh PRSS12 (11739890_at) / RFU BIN1 (11741810_x_at) / Fold change /veh BIN1 (11741810_x_at) / RFU WNT11 (11732464_a_at) / Fold change /veh WNT11 (11732464_a_at) / RFU C10orf10 (11716521_a_at) / Fold change /veh C10orf10 (11716521_a_at) / RFU C5orf56 (11738089_at) / Fold change /veh C5orf56 (11738089_at) / RFU CYB561 (11721691_x_at) / Fold change /veh CYB561 (11721691_x_at) / RFU ANKRD19P (11752326_a_at) / Fold change /veh ANKRD19P (11752326_a_at) / RFU OR2T12 /// OR2T33 /// OR2T8 (11738714_s_at) / Fold change /veh OR2T12 /// OR2T33 /// OR2T8 (11738714_s_at) / RFU VCAN (11748164_a_at) / Fold change /veh VCAN (11748164_a_at) / RFU JSRP1 (11732532_at) / Fold change /veh JSRP1 (11732532_at) / RFU KRTAP10-11 (11738290_x_at) / Fold change /veh KRTAP10-11 (11738290_x_at) / RFU MYO3A (11730013_a_at) / Fold change /veh MYO3A (11730013_a_at) / RFU EBF3 (11725865_a_at) / Fold change /veh EBF3 (11725865_a_at) / RFU CAMK2N1 (11719241_x_at) / Fold change /veh CAMK2N1 (11719241_x_at) / RFU C5orf56 (11738088_a_at) / Fold change /veh C5orf56 (11738088_a_at) / RFU OLFML3 (11715873_a_at) / Fold change /veh OLFML3 (11715873_a_at) / RFU LOC100653217 /// NTM (11731650_a_at) / Fold change /veh LOC100653217 /// NTM (11731650_a_at) / RFU MAPK11 (11762145_a_at) / Fold change /veh MAPK11 (11762145_a_at) / RFU FIZ1 (11724087_x_at) / Fold change /veh FIZ1 (11724087_x_at) / RFU OASL (11726364_x_at) / Fold change /veh OASL (11726364_x_at) / RFU SOX15 (11748057_x_at) / Fold change /veh SOX15 (11748057_x_at) / RFU CD79A (11719716_a_at) / Fold change /veh CD79A (11719716_a_at) / RFU HIST1H1D (11736915_at) / Fold change /veh HIST1H1D (11736915_at) / RFU CASKIN2 (11723855_a_at) / Fold change /veh CASKIN2 (11723855_a_at) / RFU LOC730098 (11760151_x_at) / Fold change /veh LOC730098 (11760151_x_at) / RFU OR4N2 (11742367_at) / Fold change /veh OR4N2 (11742367_at) / RFU PRRT2 (11749266_a_at) / Fold change /veh PRRT2 (11749266_a_at) / RFU SNX32 (11753110_a_at) / Fold change /veh SNX32 (11753110_a_at) / RFU CDHR5 (11726645_a_at) / Fold change /veh CDHR5 (11726645_a_at) / RFU RCAN1 (11760418_a_at) / Fold change /veh RCAN1 (11760418_a_at) / RFU FAM167A (11723789_a_at) / Fold change /veh FAM167A (11723789_a_at) / RFU FAM26E (11764081_at) / Fold change /veh FAM26E (11764081_at) / RFU ISYNA1 (11749810_s_at) / Fold change /veh ISYNA1 (11749810_s_at) / RFU ACY1 (11761880_at) / Fold change /veh ACY1 (11761880_at) / RFU 11764098_at / Fold change /veh 11764098_at / RFU SAMD14 (11745864_x_at) / Fold change /veh SAMD14 (11745864_x_at) / RFU NPB (11741838_a_at) / Fold change /veh NPB (11741838_a_at) / RFU TMPRSS6 (11731388_a_at) / Fold change /veh TMPRSS6 (11731388_a_at) / RFU KRTAP10-2 (11738614_at) / Fold change /veh KRTAP10-2 (11738614_at) / RFU ARHGAP8 /// PRR5-ARHGAP8 (11727945_x_at) / Fold change /veh ARHGAP8 /// PRR5-ARHGAP8 (11727945_x_at) / RFU KRTAP5-7 /// NADSYN1 (11734609_at) / Fold change /veh KRTAP5-7 /// NADSYN1 (11734609_at) / RFU RASL12 (11751679_a_at) / Fold change /veh RASL12 (11751679_a_at) / RFU CDKN2B (11736163_a_at) / Fold change /veh CDKN2B (11736163_a_at) / RFU PRF1 (11729649_at) / Fold change /veh PRF1 (11729649_at) / RFU, ZNF638 /// ZNF638-IT1 / Fold change vs veh, ZNF638 /// ZNF638-IT1 / RFU, PANK3 / Fold change vs veh, PANK3 / RFU, SH3YL1 / Fold change vs veh, SH3YL1 / RFU, ZEB2 / Fold change vs veh, ZEB2 / RFU, NRIP1 / Fold change vs veh, NRIP1 / RFU, PTTG1IP / Fold change vs veh, PTTG1IP / RFU, CAPN2 / Fold change vs veh, CAPN2 / RFU, MED14 / Fold change vs veh, MED14 / RFU, SNORA58 / Fold change vs veh, SNORA58 / RFU, C1orf63 / Fold change vs veh, C1orf63 / RFU, LRRFIP1 / Fold change vs veh, LRRFIP1 / RFU, NDUFAF7 / Fold change vs veh, NDUFAF7 / RFU, SLC12A2 / Fold change vs veh, SLC12A2 / RFU, IBTK / Fold change vs veh, IBTK / RFU, ESF1 / Fold change vs veh, ESF1 / Fold change vs veh, TMEM50B / RFU, TAOK1 / Fold change vs veh, TAOK1 / RFU, ACBD3 / Fold change vs veh, ACBD3 / RFU, TMA16 / Fold change vs veh, TMA16 / RFU, RWDD3 / Fold change vs veh, RWDD3 / RFU, BCAT1 / Fold change vs veh, BCAT1 / RFU, EDEM3 / Fold change vs veh, EDEM3 / RFU, TMEM33 / Fold change vs veh, TMEM33 / RFU, WDR75 / Fold change vs veh, WDR75 / RFU, AHCTF1 / Fold change vs veh, AHCTF1 / RFU, TFRC / Fold change vs veh, TFRC / RFU, ZDHHC17 / Fold change vs veh, ZDHHC17 / RFU, NOM1 / Fold change vs veh, NOM1 / RFU, ARL8B / Fold change vs veh, ARL8B / RFU, ZBTB11 / Fold change vs veh, ZBTB11 / RFU, TAMM41 / Fold change vs veh, TAMM41 / RFU, KIAA1704 /// LOC100996395 / Fold change vs veh, KIAA1704 /// LOC100996395 / RFU, ING1 / Fold change vs veh, ING1 / RFU, TRMT61B / Fold change vs veh, TRMT61B / RFU, FUBP3 / Fold change vs veh, FUBP3 / RFU, TP53 / Fold change vs veh, TP53 / RFU, TNKS2 / Fold change vs veh, TNKS2 / RFU, ZFP14 / Fold change vs veh, ZFP14 / RFU, ACTR2 / Fold change vs veh, ACTR2 / RFU, PPP3R1 / Fold change vs veh, PPP3R1 / RFU, PIK3R1 / Fold change vs veh, PIK3R1 / RFU, HNRNPA1 / Fold change vs veh, HNRNPA1 / RFU, RNF170 / Fold change vs veh, RNF170 / RFU, ZNF28 / Fold change vs veh, ZNF28 / RFU, RNGTT / Fold change vs veh, RNGTT / RFU, OGT / Fold change vs veh, OGT / RFU, BRD1 / Fold change vs veh, BRD1 / RFU, MARS / Fold change vs veh, MARS / RFU, ZNF655 / Fold change vs veh, ZNF655 / RFU, FAHD1 / Fold change vs veh, FAHD1 / RFU, BDP1 / Fold change vs veh, BDP1 / RFU, LRRCC1 / Fold change vs veh, LRRCC1 / RFU, ARID1A / Fold change vs veh, ARID1A / RFU, ZNF146 / Fold change vs veh, ZNF146 / RFU, ZNF330 / Fold change vs veh, ZNF330 / RFU, GPN3 / Fold change vs veh, GPN3 / RFU, C9orf123 / Fold change vs veh, C9orf123 / RFU, N4BP2L2 / Fold change vs veh, N4BP2L2 / RFU, ARFIP1 / Fold change vs veh, ARFIP1 / RFU, FAM179B / Fold change vs veh, FAM179B / RFU, BCL10 / Fold change vs veh, BCL10 / RFU, UHRF1BP1L / Fold change vs veh, UHRF1BP1L / RFU, BET1 / Fold change vs veh, BET1 / RFU, CNOT2 / Fold change vs veh, CNOT2 / RFU, ZNF268 / Fold change vs veh, ZNF268 / Fold change vs veh, ZNF507 / RFU, DGCR2 / Fold change vs veh, DGCR2 / RFU, WDSUB1 / Fold change vs veh, WDSUB1 / Fold change vs veh, HSP90B1 /// MIR3652 / RFU, ADSS / Fold change vs veh, ADSS / RFU, GK / Fold change vs veh, GK / RFU, ZNF148 / Fold change vs veh, ZNF148 / RFU, TAF9 / Fold change vs veh, TAF9 / RFU, SLC1A5 / Fold change vs veh, SLC1A5 / RFU, SLMO2 / Fold change vs veh, SLMO2 / RFU, ABCC4 / Fold change vs veh, ABCC4 / RFU, LOC101060439 /// RAP1B / Fold change vs veh, LOC101060439 /// RAP1B / RFU, RFX7 / Fold change vs veh, RFX7 / RFU, GTPBP10 / Fold change vs veh, GTPBP10 / RFU, CNEP1R1 / Fold change vs veh, CNEP1R1 / RFU, BIVM-ERCC5 /// ERCC5 / Fold change vs veh, BIVM-ERCC5 /// ERCC5 / RFU, ILF3 / Fold change vs veh, ILF3 / RFU 11762660_at / Fold change /veh 11762660_at / RFU VCAN (11757783_s_at) / Fold change /veh VCAN (11757783_s_at) / RFU DDX43 (11728927_at) / Fold change /veh DDX43 (11728927_at) / RFU KRT8 (11758188_x_at) / Fold change /veh KRT8 (11758188_x_at) / RFU NKD1 (11759106_at) / Fold change /veh NKD1 (11759106_at) / RFU SRD5A1 (11742802_a_at) / Fold change /veh SRD5A1 (11742802_a_at) / RFU TPSAB1 /// TPSB2 (11721975_s_at) / Fold change /veh TPSAB1 /// TPSB2 (11721975_s_at) / RFU GSTM3 (11746129_a_at) / Fold change /veh GSTM3 (11746129_a_at) / RFU IL23R (11737362_x_at) / Fold change /veh IL23R (11737362_x_at) / RFU TMEM51 (11727254_a_at) / Fold change /veh TMEM51 (11727254_a_at) / RFU PIWIL2 (11732686_x_at) / Fold change /veh PIWIL2 (11732686_x_at) / RFU ORM1 (11744905_x_at) / Fold change /veh ORM1 (11744905_x_at) / RFU CCDC152 (11743942_at) / Fold change /veh CCDC152 (11743942_at) / RFU ECM1 (11717891_a_at) / Fold change /veh ECM1 (11717891_a_at) / RFU IL23R (11748794_a_at) / Fold change /veh IL23R (11748794_a_at) / RFU TNFAIP8L3 (11732012_x_at) / Fold change /veh TNFAIP8L3 (11732012_x_at) / RFU MBOAT4 (11741988_at) / Fold change /veh MBOAT4 (11741988_at) / RFU 11764193_at / Fold change /veh 11764193_at / RFU TMEM53 (11763286_at) / Fold change /veh TMEM53 (11763286_at) / RFU MAGEB2 (11727129_at) / Fold change /veh MAGEB2 (11727129_at) / RFU TMEM200A (11744735_a_at) / Fold change /veh TMEM200A (11744735_a_at) / RFU CCDC152 (11751479_a_at) / Fold change /veh CCDC152 (11751479_a_at) / RFU FAM211A (11726209_a_at) / Fold change /veh FAM211A (11726209_a_at) / RFU RGS16 (11746705_a_at) / Fold change /veh RGS16 (11746705_a_at) / RFU VCAN (11755009_s_at) / Fold change /veh VCAN (11755009_s_at) / RFU RHOB (11743442_s_at) / Fold change /veh RHOB (11743442_s_at) / RFU RGS16 (11720943_a_at) / Fold change /veh RGS16 (11720943_a_at) / RFU RGS16 (11720944_at) / Fold change /veh RGS16 (11720944_at) / RFU, VPS4B / Fold change vs veh, VPS4B / RFU, CREB1 / Fold change vs veh, CREB1 / RFU, DNAJC13 / Fold change vs veh, DNAJC13 / RFU, GNAQ / Fold change vs veh, GNAQ / RFU, CDK5R1 / Fold change vs veh, CDK5R1 / RFU, ZRANB3 / Fold change vs veh, ZRANB3 / RFU, CUL4A / Fold change vs veh, CUL4A / RFU, CCNY / Fold change vs veh, CCNY / RFU, UFL1 / Fold change vs veh, UFL1 / RFU, COG3 / Fold change vs veh, COG3 / RFU, DIAPH2 / Fold change vs veh, DIAPH2 / RFU, SKA2 / Fold change vs veh, SKA2 / RFU, AFF3 / Fold change vs veh, AFF3 / RFU, LMF1 / Fold change vs veh, LMF1 / RFU, IPO11 / Fold change vs veh, IPO11 / RFU, DFFB / Fold change vs veh, DFFB / RFU, FOXP1 / Fold change vs veh, FOXP1 / RFU, CARD8 / Fold change vs veh, CARD8 / RFU, STRN3 / Fold change vs veh, STRN3 / RFU, ADK / Fold change vs veh, ADK / RFU, RASSF2 / Fold change vs veh, RASSF2 / RFU, WIPF1 / Fold change vs veh, WIPF1 / RFU, LARP1B / Fold change vs veh, LARP1B / RFU, RASA1 / Fold change vs veh, RASA1 / RFU, RB1 / Fold change vs veh, RB1 / RFU, PPFIA1 / Fold change vs veh, PPFIA1 / RFU, MAT2A / Fold change vs veh, MAT2A / RFU, CCT5 / Fold change vs veh, CCT5 / RFU, WDR92 / Fold change vs veh, WDR92 / RFU, CUX1 / Fold change vs veh, CUX1 / RFU, TTC7A / Fold change vs veh, TTC7A / RFU, TMEM135 / Fold change vs veh, TMEM135 / RFU, DEPTOR / Fold change vs veh, DEPTOR / RFU, CPM / Fold change vs veh, CPM / RFU, DNAJB6 / Fold change vs veh, DNAJB6 / RFU, CACNA2D3 / Fold change vs veh, CACNA2D3 / RFU, DTX4 / Fold change vs veh, DTX4 / RFU, TFCP2 / Fold change vs veh, TFCP2 / RFU, GMCL1 /// GMCL1P1 / Fold change vs veh, GMCL1 /// GMCL1P1 / RFU, AEBP2 / Fold change vs veh, AEBP2 / RFU, SNHG1 /// SNORD22 /// SNORD25 /// SNORD26 /// SNORD27 /// SNORD28 /// SNORD29 /// SNORD31 / Fold change vs veh, SNHG1 /// SNORD22 /// SNORD25 /// SNORD26 /// SNORD27 /// SNORD28 /// SNORD29 /// SNORD31 / Fold change (Aza/veh), C12orf56 (ProbeSet 11735607_a_at) / Fold change (ACY-1035/veh), C12orf56 (ProbeSet 11735607_a_at) / Fold change (Aza/veh), FGFR1OP (ProbeSet 11751329_s_at) / Fold change (ACY-1035/veh), FGFR1OP (ProbeSet 11751329_s_at) / Fold change (Aza/veh), VPS36 (ProbeSet 11739960_a_at) / Fold change (ACY-1035/veh), VPS36 (ProbeSet 11739960_a_at) / RFU SYPL1 (11715823_x_at) / Fold change /veh SYPL1 (11715823_x_at) / RFU IGFBP7 (11715501_s_at) / Fold change /veh IGFBP7 (11715501_s_at) / RFU REEP3 (11722064_at) / Fold change /veh REEP3 (11722064_at) / RFU IGLL1 (11728026_x_at) / Fold change /veh IGLL1 (11728026_x_at): dose or concentration left out as unconfirmed
Conditions: ProbeSet 11717702_a_at; LIST D

In the case of Nc1ncn([C@@H]2O[C@H](CO)[C@@H](O)[C@H]2O)c(=O)n1 [azacitidine], the “RFU, RB1” value is reported as 184.53 RFU.
